Calls of active or inactive are those of the source.
Experiments:
Beta-galactosidase = Beta-galactosidase (Escherichia coli, UniProt Q8VNN2); assay: Dose response counterscreen for EBI2 assay utilizing the enzyme, b-galactosidase.; assay type: functional
Kallikrein-7 = Kallikrein-7 (Homo sapiens, UniProt P49862); assay: Fluorescence Intensity-based biochemical primary high throughput dose response assay to identify activators of kallikrein-7 (K7) zymogen.
[1] = THP-1 cell cytotoxicity, dose response, cytotoxicity control for non-replicating M. tuberculosis project (AID 489025); assay type: functional
[2] = HPDE-C7 pancreatic duct cell viability loss – fluorescence, HTS (AID 430); assay type: functional, cell-based; settings: Homo sapiens
cells = assay type: functional
[3] = viability loss of HPDE-C7K cells – cell-based, fluorescence, HTS, primary screen (AID 431); assay type: functional; settings: Homo sapiens
[4] = molecular target: T1, Corticotropin-releasing factor receptor 2/Corticotropin-releasing factor-binding protein (Homo sapiens, UniProt P24387+Q13324); assay: activators of CRF receptor 2 with binding protein – uHTS hits, confirmation (AID 602473); assay type: functional; settings: read-out: EC50_Mean
T1 sequence (Q13324 whole entry): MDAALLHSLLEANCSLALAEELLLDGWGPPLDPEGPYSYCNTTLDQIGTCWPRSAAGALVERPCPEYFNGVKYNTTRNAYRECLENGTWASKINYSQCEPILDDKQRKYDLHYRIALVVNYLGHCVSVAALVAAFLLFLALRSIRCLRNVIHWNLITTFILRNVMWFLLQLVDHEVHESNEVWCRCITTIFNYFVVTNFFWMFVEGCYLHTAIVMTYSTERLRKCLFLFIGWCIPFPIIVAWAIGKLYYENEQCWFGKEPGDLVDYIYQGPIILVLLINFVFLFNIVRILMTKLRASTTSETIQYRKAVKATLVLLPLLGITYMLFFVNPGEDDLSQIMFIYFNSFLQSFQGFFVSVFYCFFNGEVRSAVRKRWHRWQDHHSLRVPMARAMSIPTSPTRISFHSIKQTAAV
T1 sequence (P24387 whole entry): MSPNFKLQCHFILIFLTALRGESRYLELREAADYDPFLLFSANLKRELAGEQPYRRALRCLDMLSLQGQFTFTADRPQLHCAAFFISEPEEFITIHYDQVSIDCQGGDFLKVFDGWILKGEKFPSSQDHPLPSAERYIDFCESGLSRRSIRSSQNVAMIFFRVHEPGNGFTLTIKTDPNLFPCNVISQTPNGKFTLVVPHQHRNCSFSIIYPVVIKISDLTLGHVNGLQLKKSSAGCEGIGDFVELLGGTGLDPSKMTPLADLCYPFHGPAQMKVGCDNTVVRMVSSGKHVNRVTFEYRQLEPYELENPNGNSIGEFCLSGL

[5] = molecular target: T1, Corticotropin-releasing factor receptor 2/Corticotropin-releasing factor-binding protein; assay: Dose Response confirmation of uHTS hits for small molecule antagonists of the CRF-binding protein and CRF-R2 receptor complex.; assay type: functional; settings: read-out: IC50_Mean
[6] = blockers of CRF-binding protein–CRF-R2 complex – cell-based, uHTS hits, 384-well, dose response (AID 651639); assay type: functional, Homo sapiens; settings: read-out: IC50_Mean
[7] = reduced cellular PGC1a acetyl-lysine signal – cell-based, cherry-picked samples, dose response (AID 720514); assay type: functional;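 also: potency may reflect raised or lowered acetylation signal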
[8] = molecular target: T2, Hepatocyte nuclear factor 4-alpha (Homo sapiens, UniProt P41235); assay type: functional, cell-based;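 also: biochemical luminescence-based dose-response counterscreen measuring inhibition of HNF4 dimerization, run alongside a screen for blockers of ABHD5–perilipin-5 interaction; split luciferase complementation of HNF4 fusion proteins in cell lysate measuring dimerization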
T2 sequence (P41235 whole entry): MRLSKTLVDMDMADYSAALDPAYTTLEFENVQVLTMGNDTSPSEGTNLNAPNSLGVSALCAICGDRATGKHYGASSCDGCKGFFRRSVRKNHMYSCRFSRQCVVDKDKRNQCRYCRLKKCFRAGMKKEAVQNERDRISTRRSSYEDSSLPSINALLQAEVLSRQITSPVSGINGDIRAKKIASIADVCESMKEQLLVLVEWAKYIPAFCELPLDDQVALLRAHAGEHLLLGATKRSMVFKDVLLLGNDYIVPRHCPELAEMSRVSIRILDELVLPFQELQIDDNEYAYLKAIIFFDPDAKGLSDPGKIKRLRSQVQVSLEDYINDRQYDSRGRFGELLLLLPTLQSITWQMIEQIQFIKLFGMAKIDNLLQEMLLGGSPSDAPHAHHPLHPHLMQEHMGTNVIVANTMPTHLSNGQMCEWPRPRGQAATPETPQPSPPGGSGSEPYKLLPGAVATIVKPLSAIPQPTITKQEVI

[9] = non-specific 3'UTR reporter inhibition in Clone20-Shn3RL – cell-based, Renilla luciferase, cherry-picked, counter-screen for Shn3 inhibitor project, dose response (AID 624133); assay type: functional
[10] = reduction of Shn3 3'UTR-driven luciferase in osteoblasts – cell-based, Clone20 osteoblasts, firefly luciferase, cherry-picked, dose response (AID 624132); assay type: functional;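 also: firefly luciferase luminescence from reporter carrying the Shn3 3'UTR in osteoblasts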
Paired box protein Pax-8 = Paired box protein Pax-8 (Homo sapiens, UniProt Q06710); assay: PAX8 transcriptional activity inhibition in RMG-I – RMG-I cells, luciferase, cherry-pick, dose response (AID 687027); assay type: functional, cell-based;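 also: luciferase reporter driven by Pax8 target thyroperoxidase promoter measured by SteadyGlo luminescence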
[11] = loss of viability in HepG2 cells – cell-based, CellTiter-Glo, cherry-picked, cytotoxicity control for Shn3 inhibitor project, dose response (AID 624134); assay type: functional
[12] = OVCAR8 cell viability loss – plate reader, dry powder samples, PAX8 project, dose response (AID 743197); assay type: functional, cell-based; settings: OVCAR-8
[13] = OVCAR-3 cell viability loss – plate reader, dry powder samples, PAX8 inhibitor project, dose response (AID 743044); assay type: functional, cell-based
[14] = molecular target: T3, Endoribonuclease toxin MazF (Escherichia coli K-12, UniProt P0AE70); assay: activation of MazEF endoribonuclease cleavage – biochemical, fluorescence, single-stranded RNA substrate, uHTS hits, dose response (AID 588481); assay type: functional
T3 sequence (P0AE70 whole entry): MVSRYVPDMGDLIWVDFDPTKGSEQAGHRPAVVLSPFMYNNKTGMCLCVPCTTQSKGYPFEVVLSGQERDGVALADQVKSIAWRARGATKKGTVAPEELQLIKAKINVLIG

[15] = molecular target: T3, Endoribonuclease toxin MazF; assay: substrate-only fluorescence increase artefacts – biochemical, single-stranded RNase substrate, counter-screen for MazEF activator project, dose response (AID 588502); assay type: functional
[16] = molecular target: T4, Mannose-6-phosphate isomerase (Homo sapiens, UniProt P34949); assay: MPI inhibition at elevated mannose 6-phosphate – biochemical, fluorescence intensity, high mannose 6-phosphate, primary screen (AID 1220)
T4 sequence (P34949 whole entry): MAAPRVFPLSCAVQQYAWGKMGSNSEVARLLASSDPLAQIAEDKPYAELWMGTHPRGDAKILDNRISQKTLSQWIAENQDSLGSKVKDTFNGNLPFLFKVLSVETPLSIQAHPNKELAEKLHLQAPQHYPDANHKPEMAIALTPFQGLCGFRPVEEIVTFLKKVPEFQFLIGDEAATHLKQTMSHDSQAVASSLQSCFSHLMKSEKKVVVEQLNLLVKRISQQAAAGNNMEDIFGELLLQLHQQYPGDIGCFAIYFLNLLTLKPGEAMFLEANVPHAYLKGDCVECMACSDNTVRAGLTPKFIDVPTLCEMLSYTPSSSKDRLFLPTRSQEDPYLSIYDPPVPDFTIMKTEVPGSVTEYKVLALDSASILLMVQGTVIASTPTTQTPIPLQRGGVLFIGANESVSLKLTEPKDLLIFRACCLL

[17] = molecular target: Eukaryotic translation initiation factor 4E (Mus musculus, UniProt P63073); assay: blockers of eIF4G binding by eIF4E – biochemical, TR-FRET, dose response (AID 855); assay type: functional;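 also: potency for disrupting eIF4E binding to eIF4GI seen as loss of FRET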
[18] = HIV-1 AD8 envelope cell-cell fusion blockers – cherry-pick, dose response (AID 652062); assay type: functional, cell-based;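 also: luciferase signal from cell-cell fusion driven by HIV-1 clade B AD8 Env; potency is for inhibitors of fusion seen as a drop in luminescence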
[19] = blockers of HIV-1 ZM109 envelope-driven cell-cell fusion – HeLa effector, CEM target cells, luciferase, cherry-pick, dose response (AID 652058); assay type: functional, cell-based;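 also: luciferase signal from HIV-1 Env mediated cell-cell fusion of effector and target cells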
[20] = blockers of HIV-1 envelope-mediated cell-cell fusion – cherry-pick, dose response (AID 652057); assay type: functional, cell-based
[21] = off-target signal loss in HeLa-CEM21 co-culture – HeLa F-luc CTL cells, cherry-picked, counter-screen for HIV-1 Env fusion inhibitor project, dose response (AID 652040); assay type: functional, cell-based;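 also: potency for signal decrease marking cytotoxic or nonspecific inhibition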
[22] = viability loss in CEM21 cells – cell-based, CellTiter-Glo luminescence, cherry-picked, cytotoxicity control for viral fusion inhibitor project, dose response (AID 652042); assay type: functional;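 also: potency for signal decrease meaning cytotoxicity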

Sequence of Beta-galactosidase (Q8VNN2 whole entry): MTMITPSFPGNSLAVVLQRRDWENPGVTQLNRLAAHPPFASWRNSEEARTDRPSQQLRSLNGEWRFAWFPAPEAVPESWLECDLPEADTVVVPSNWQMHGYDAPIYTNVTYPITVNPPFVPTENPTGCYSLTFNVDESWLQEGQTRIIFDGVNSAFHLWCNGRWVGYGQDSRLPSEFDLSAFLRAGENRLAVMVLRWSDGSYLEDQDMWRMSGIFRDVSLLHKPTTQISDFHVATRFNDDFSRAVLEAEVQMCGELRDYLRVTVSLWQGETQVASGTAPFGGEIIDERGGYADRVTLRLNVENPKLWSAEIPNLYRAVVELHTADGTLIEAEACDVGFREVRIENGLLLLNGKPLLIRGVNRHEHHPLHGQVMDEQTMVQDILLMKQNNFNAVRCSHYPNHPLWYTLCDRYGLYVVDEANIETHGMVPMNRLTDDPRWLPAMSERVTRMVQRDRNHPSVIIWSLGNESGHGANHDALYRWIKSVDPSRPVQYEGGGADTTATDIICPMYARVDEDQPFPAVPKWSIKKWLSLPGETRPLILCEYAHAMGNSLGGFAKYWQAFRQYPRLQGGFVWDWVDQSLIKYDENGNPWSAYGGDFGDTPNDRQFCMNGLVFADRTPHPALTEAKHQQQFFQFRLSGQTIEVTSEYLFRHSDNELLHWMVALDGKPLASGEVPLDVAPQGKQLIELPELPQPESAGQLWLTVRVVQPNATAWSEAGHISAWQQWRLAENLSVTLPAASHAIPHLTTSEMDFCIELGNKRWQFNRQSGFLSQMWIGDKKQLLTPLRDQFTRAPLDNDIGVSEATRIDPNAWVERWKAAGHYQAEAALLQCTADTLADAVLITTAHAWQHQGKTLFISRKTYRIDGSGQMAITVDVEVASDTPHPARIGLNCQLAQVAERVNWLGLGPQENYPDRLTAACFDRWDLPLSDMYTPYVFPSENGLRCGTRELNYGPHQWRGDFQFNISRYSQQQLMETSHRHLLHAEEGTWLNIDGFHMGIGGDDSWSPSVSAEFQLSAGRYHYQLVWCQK
Sequence of Paired box protein Pax-8 (Q06710 whole entry): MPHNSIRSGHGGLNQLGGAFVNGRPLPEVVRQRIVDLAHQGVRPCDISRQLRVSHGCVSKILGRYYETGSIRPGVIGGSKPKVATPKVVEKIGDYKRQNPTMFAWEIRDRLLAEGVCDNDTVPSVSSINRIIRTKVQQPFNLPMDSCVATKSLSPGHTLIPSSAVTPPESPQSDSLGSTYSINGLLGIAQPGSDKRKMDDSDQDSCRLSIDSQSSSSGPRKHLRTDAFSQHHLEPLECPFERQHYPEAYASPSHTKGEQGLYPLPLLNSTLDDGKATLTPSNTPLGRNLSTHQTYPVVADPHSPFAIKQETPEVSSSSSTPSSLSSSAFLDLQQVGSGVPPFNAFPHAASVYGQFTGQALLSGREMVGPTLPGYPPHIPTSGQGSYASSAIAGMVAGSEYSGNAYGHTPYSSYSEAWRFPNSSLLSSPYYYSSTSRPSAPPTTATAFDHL
Sequence of Kallikrein-7 (P49862 whole entry): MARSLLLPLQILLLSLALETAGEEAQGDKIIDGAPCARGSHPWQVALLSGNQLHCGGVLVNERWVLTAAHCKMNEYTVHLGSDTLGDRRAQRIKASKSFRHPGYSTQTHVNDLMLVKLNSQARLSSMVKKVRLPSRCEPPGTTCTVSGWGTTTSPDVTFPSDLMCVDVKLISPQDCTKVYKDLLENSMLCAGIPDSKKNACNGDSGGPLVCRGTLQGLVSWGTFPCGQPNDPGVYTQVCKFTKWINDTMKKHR
Sequence of Eukaryotic translation initiation factor 4E (P63073 whole entry, the tested form may be a part): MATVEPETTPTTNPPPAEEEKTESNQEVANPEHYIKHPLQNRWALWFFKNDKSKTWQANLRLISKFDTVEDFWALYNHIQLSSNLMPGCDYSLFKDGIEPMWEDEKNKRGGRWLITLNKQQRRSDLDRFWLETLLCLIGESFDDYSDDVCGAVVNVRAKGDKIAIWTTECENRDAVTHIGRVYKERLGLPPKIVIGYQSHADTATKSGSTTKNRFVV

In the case of `CCOc1ccc(N(CC(=O)NCCOc2ccc(C)cc2)S(=O)(=O)c2ccccc2)cc1`, the IC50 (Beta-galactosidase) is reported as > 80 µM (inactive).

For `CCOC(=O)N1CCN(C(=O)COc2ccc3c(c2)C(=O)CC(C)(C)O3)CC1`, the EC50 (Kallikrein-7) was > 69.5 µM (inactive).

For `CCOC(=O)N1CCN(C(=O)CSc2ccc(Cl)cc2)CC1`, the IC50 (Beta-galactosidase) was > 80 µM (inactive).

With `CC(CN1CCOCC1)OC(=O)c1ccc(Br)cc1` (stereo not given) the CC50 [1] was 38.2 µM (active), the EC50 [2] was 6.73 µM (active) and the IC50 (cells) was 5.68 µM (active). For the same compound, the EC50 [3] was 9.11 µM (active).

For `Cc1c(NS(=O)(=O)c2ccccc2)ccc([N+](=O)[O-])c1Cl`, the EC50 [4] was > 53 µM (inactive), the IC50 [5] was 3.86 µM (active) and the IC50 [6] was 13.2 µM (active).

For `C#CCN(C[C@@H]1[C@@H](OC(=O)NC2CCCC2)[C@@H](OC(=O)NC2CCCC2)Cn2c(=O)ccc(=O)n21)S(=O)(=O)c1ccc(C)cc1`, the AC50 [7] was 3.87 µM (active), the IC50 [8] was 16.5 µM (inactive) and the AC50 [9] was 14.4 µM (active). For the same compound, the AC50 [10] was 12.9 µM (active), the AC50 (Paired box protein Pax-8) was 6.12 µM (active) and the AC50 [11] was 23.1 µM (active).

For `C[C@@H]1CCCCO[C@H](CN(C)CC2CCCCC2)[C@H](C)CN([C@@H](C)CO)C(=O)c2cc(NC(=O)Nc3ccccc3)ccc2O1`, the AC50 [12] was 61 µM (active), the AC50 (Paired box protein Pax-8) was 10.9 µM (active) and the AC50 [13] was 57 µM (active).

For `CC(C)N(C)c1ncnc2c1ncn2[C@H]1CN(Cc2ccc(Cl)cc2)C[C@@H](CO)O1`, the IC50 (Beta-galactosidase) was > 80 µM (inactive).

With `Oc1nc2cc(/N=C/c3c(O)ccc4cc(Br)ccc34)ccc2[nH]1` the EC50 [14] was > 99 µM (inactive), the EC50 [15] was 5.48 µM (active) and the IC50 [16] was > 50 µM (not active).

In the case of `Fc1ccc(/N=c2\ssnc2Cl)c(F)c1`, the IC50 [17] is reported as 38.5 µM (inactive) and the IC50 [16] is reported as 25.3 µM (active).

For `COc1cc(C(=O)O[C@H]2CC(C)=CC[C@@]3(C)CC[C@@](O)(C(C)C)[C@H]23)ccc1O` [TEFERIN], the AC50 [18] was 4.06 µM (active), the AC50 [19] was 1.64 µM (active) and the AC50 [20] was 1.19 µM (active). For the same compound, the AC50 [21] was 2.35 µM (active) and the AC50 [22] was 35.6 µM (active).

— ChEMBL document CHEMBL1201862, “PubChem BioAssay data set” (2004)
